The supplement of paper PMC10307832

How the values were obtained:
Experiment in all cases: relative viability (nuclei count vs DMSO), 5 days (fraction); higher = more cells survive
GSK-J4 + AZD7762 = compound: CCOC(=O)CCNc1cc(N2CCc3ccccc3CC2)nc(-c2ccccn2)n1 [GSK-J4] + NC(=O)Nc1cc(-c2cccc(F)c2)sc1C(=O)N[C@H]1CCCNC1 [AZD7762] (partner 0.2 µM)
How it was run: (§1)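 Cells from lung cancer lines were seeded into 1536-well plates and, one day later, dosed by pin tool. Treatments were either a single drug or a fixed dose of an anchor drug with five library-drug doses (not always all listed) in √10 steps. After 5 days, nuclei were stained in a one-step fixation (final 0.05% Triton X-100, 1% formaldehyde, 1 ug/ml Hoechst) and counted on 4× images, and relative viability is the treated-to-vehicle nuclei ratio, as the median of duplicate plates.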

GSK-J4 + OSI-027 = compound: CCOC(=O)CCNc1cc(N2CCc3ccccc3CC2)nc(-c2ccccn2)n1 [GSK-J4] + COc1cccc2cc(-c3nc([C@H]4CC[C@H](C(=O)O)CC4)n4ncnc(N)c34)[nH]c12 [OSI-027] (partner 0.5 µM)
How it was run: as §1

GSK-J4 + Tozasertib = compound: CCOC(=O)CCNc1cc(N2CCc3ccccc3CC2)nc(-c2ccccn2)n1 [GSK-J4] + Cc1cc(Nc2cc(N3CCN(C)CC3)nc(Sc3ccc(NC(=O)C4CC4)cc3)n2)n[nH]1 [Tozasertib] (partner 0.1 µM)
How it was run: as §1

AZ3146 + Alpelisib = compound: CN1CCC(CC1)OC2=CC(=C(C=C2)NC3=NC=C4C(=N3)N(C(=O)N4C)C5CCCC5)OC [AZ3146] + Cc1nc(NC(=O)N2CCC[C@H]2C(N)=O)sc1-c1ccnc(C(C)(C)C(F)(F)F)c1 [Alpelisib] (partner 2 µM)
How it was run: as §1

Cell Line	relative viability (GSK-J4 + AZD7762; first compound 0.5 µM)	relative viability (GSK-J4 + AZD7762; first compound 1.581 µM)	relative viability (GSK-J4 + AZD7762; first compound 5 µM)	relative viability (GSK-J4 + AZD7762; first compound 15.81 µM)	relative viability (GSK-J4 + AZD7762; first compound 50 µM)	relative viability (GSK-J4 + OSI-027; first compound 0.5 µM)	relative viability (GSK-J4 + OSI-027; first compound 1.581 µM)	relative viability (GSK-J4 + OSI-027; first compound 5 µM)	relative viability (GSK-J4 + OSI-027; first compound 15.81 µM)	relative viability (GSK-J4 + OSI-027; first compound 50 µM)	relative viability (GSK-J4 + Tozasertib; first compound 0.5 µM)	relative viability (GSK-J4 + Tozasertib; first compound 1.581 µM)	relative viability (GSK-J4 + Tozasertib; first compound 5 µM)	relative viability (GSK-J4 + Tozasertib; first compound 15.81 µM)	relative viability (GSK-J4 + Tozasertib; first compound 50 µM)	relative viability (AZ3146 + Alpelisib; first compound 0.08 µM)	relative viability (AZ3146 + Alpelisib; first compound 0.253 µM)	relative viability (AZ3146 + Alpelisib; first compound 0.8 µM)	relative viability (AZ3146 + Alpelisib; first compound 2.53 µM)	relative viability (AZ3146 + Alpelisib; first compound 8 µM)
LXF-289	1.09	0.836	0.742	1.07	0.987	0.783	0.583	0.53	0.711	0.52	0.198	0.154	0.132	0.166	0.204	1.02	1	0.96	1.06	0.946
NCI-H2347	0.779	0.783	0.781	0.724	0.591	0.449	0.347	0.617	–	0.338	0.573	0.452	0.534	–	0.476	0.944	1.01	0.708	1.1	1.04
RERF-LC-KJ	0.916	0.825	0.812	0.821	0.672	0.582	0.475	0.485	0.473	0.382	0.415	0.428	0.483	0.493	0.357	0.805	0.834	0.685	0.888	0.747
NCI-H596	1.18	1.12	1.01	0.926	1.12	0.72	0.767	0.857	0.464	0.597	0.953	0.891	0.971	0.847	0.691	0.482	0.484	0.489	0.487	0.428
NCI-H1734	0.513	0.767	0.333	0.513	0.423	0.544	0.518	0.489	0.445	0.372	0.266	0.251	0.26	0.246	0.259	0.731	0.62	0.731	0.649	0.696
NCI-H1915	0.614	0.728	–	0.592	0.722	0.598	0.578	–	0.595	0.657	0.404	0.395	–	0.409	0.337	0.978	1	1	1.06	1.04
NCI-H838	0.971	0.681	0.76	0.874	0.789	0.452	0.353	–	0.362	0.385	0.299	0.26	–	0.26	0.21	0.95	1.06	0.883	0.985	0.858
HCC-15	1.19	1.09	1.12	0.982	1.22	0.722	–	0.634	0.469	0.285	0.393	–	0.344	0.319	0.2	0.939	0.899	0.864	0.822	0.893
NCI-H650	0.938	1.04	–	0.782	0.696	0.508	0.447	0.356	0.427	0.294	0.677	0.727	0.432	0.526	0.459	0.813	1.08	0.915	1.14	1.25
NCI-H1651	0.4	0.468	0.466	0.406	0.38	0.79	0.734	0.687	0.706	0.721	0.674	0.623	0.807	0.569	0.567	0.879	1.02	0.936	1.1	0.958
NCI-H2405	0.774	0.954	–	0.677	0.738	0.682	0.703	–	0.521	0.556	0.743	0.703	–	0.719	0.671	0.891	–	0.789	0.829	0.76
LU99A	0.277	0.249	–	0.244	0.126	0.267	0.323	–	0.248	0.236	0.233	0.276	–	0.281	0.253	0.494	0.564	0.515	0.606	0.438
H3255	0.827	0.791	0.727	0.791	0.656	0.616	0.545	0.627	0.529	0.531	0.519	0.622	0.539	0.531	0.508	0.749	0.649	0.664	0.754	0.656
NCI-H1993	0.805	0.683	1.04	0.604	0.435	0.536	0.485	0.646	0.563	0.527	0.51	0.562	0.646	0.503	0.497	0.785	0.713	0.61	0.666	0.662
NCI-H322M	0.618	0.506	0.555	0.636	0.536	0.556	0.506	0.637	0.504	0.49	0.457	0.393	0.484	0.442	0.507	0.759	0.83	0.699	0.807	0.785
NCI-H460	0.645	–	–	0.65	0.555	0.586	0.494	0.537	0.508	0.522	0.41	0.387	0.344	0.294	0.283	0.375	0.466	0.478	0.573	0.254
NCI-H358	0.598	0.576	0.692	0.606	0.44	0.765	0.68	0.795	0.504	0.617	0.087	0.0898	0.0969	0.113	0.129	0.897	0.741	0.783	0.889	0.78
